According to patent publication US20070078100A1, “Methods of detecting poly(adp-ribose) polymerase and other nad+ utilizing enzymes” (THE BOARD OF TRUSTEES OF THE UNIVERSITY OF ILLINOI, priority 2003, published 2007):
Read-outs that look alike come from different tables or passages of the source.

What was measured:
PARP-1 = target: T1, PARP-1 (Homo sapiens, UniProt P09874); experiment: NAD+ quantitation (fluorescence) assay, determination of IC50 values for PARP inhibitors; format: biochemical
T1 construct: purchased Trevigen
Experimental: This assay was also applied to determine the IC50 values of the known PARP inhibitors. For these determinations, the inhibitors, at a variety of concentrations, were added to a 96-well plate containing NAD+ and nicked DNA. PARP-1 was then added, and the reaction was allowed to proceed for 15 min. At this point acetophenone/KOH was added, which serves to both quench the PARP-1 enzymatic activity and to begin the conversion of any remaining NAD+ to the fluorophore. After 10 min at 4° C. in the presence of acetophenone/KOH, a solution of formic acid was added and the mixture was incubated in a 110° C. oven for 5 minutes.
In addition, only very low levels of NAD+ were used in this assay (100 nM). […] However, NAD+ concentrations up to 100 μM can also be used, if one desires a direct correlation with other assay methods that typically use micromolar amounts of NAD+ substrate.
The reaction was initiated by adding 10 μL of PARP at a concentration of 10 μg/mL (in PARP assay buffer), bringing the final concentration to 2 μg/mL PARP, 10 μg/mL DNA, 100 nM NAD+ with varying concentrations of inhibitors in a total volume of 50 μL. The plate was incubated for 15 min at room temperature and the amount of NAD+ was then determined by the fluorescence method as described above for the calibration curve. The average value of control wells containing only NAD+ was set as 0% PARP activity, while the average value of control wells containing NAD+ and PARP (but no inhibitor) was set as 100% PARP activity. […] All data points in FIG. 8 were determined in quadruplicate.
Graphs were analyzed using Table Curve 2D. NAD+ standard curves were fitted with a least squares linear model and inhibitor curves were fitted with a logistic dose response curve.

PARP = PARP (Homo sapiens, UniProt P09874); conditions: literature values, references in brackets; cited from earlier work
[1] = 100 nM NAD+, 2 μg/mL PARP, 10 μg/mL DNA, 15 min at room temperature, 96-well plate, read-out: IC50 value

T1 sequence (P09874 whole entry): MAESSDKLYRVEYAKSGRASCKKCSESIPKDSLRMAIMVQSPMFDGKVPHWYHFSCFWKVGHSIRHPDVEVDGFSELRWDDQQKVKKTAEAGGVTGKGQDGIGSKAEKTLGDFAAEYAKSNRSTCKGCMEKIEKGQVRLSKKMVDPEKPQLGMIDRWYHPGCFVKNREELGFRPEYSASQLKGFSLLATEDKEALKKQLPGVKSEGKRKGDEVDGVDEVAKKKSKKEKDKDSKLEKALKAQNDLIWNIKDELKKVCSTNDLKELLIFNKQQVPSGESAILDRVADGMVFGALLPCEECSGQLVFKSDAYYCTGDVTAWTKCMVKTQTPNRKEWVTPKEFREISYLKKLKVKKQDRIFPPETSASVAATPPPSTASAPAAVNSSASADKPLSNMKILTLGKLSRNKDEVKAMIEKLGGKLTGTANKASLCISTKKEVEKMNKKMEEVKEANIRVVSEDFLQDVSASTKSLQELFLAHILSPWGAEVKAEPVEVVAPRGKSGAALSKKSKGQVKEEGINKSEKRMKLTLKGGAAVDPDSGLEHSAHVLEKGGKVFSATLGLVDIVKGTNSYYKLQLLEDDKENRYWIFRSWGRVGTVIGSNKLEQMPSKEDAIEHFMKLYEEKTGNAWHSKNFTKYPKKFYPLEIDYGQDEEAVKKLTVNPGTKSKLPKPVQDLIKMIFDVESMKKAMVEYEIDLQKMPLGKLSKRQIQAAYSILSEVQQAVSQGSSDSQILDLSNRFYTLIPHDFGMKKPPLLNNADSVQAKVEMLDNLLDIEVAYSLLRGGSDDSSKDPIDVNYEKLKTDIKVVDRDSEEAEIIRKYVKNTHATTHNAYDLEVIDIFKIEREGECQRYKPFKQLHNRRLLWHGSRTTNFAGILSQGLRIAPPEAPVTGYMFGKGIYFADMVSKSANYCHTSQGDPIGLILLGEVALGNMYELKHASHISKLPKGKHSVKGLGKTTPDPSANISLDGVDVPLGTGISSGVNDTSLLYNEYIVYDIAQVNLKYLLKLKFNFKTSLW
Chain of PARP (P09874 whole entry): as above

IC50 (PARP-1; [1]) [nM]	Compound	IC50 (PARP-1) [nM]	IC50 (PARP) [nM]
305	O=c1[nH]c2ccccc2c2ccccc12 [6(5H)-phenanthridinons, 6(5H)-phenanthridinone]		
	O=C1NCCc2c(OCCCCN3CCCCC3)cccc21 [DPQ, 3,4-dihydro-5-[4-(1-piperidinyl)butoxy]-1 (2B)-isoquinolinone]	37	
1440	NC(=O)c1ccccc1 [benzamide]		1300
